Data as given in patent publication US20050043378A1, “LTA4H modulators” (priority 2003, published 2005).
Structures can show the parent of a compound that is named as a salt. Where two headings read alike, the source gives them in different places.

Tests used:
[1] = test system: ex vivo stimulated LTB4 production in blood; assay: Murine arachidonic acid-induced inflammation model: ex vivo stimulated LTB4 production; design: species or system female Balb/c mice; details: Mus musculus, read-out: % Inh. LTB4
[2] = test system: neutrophil influx (myeloperoxidase, MPO); assay: Murine arachidonic acid-induced inflammation model: neutrophil influx (myeloperoxidase activity in ear biopsies); type: in vivo, female Balb/c mice; details: Mus musculus, read-out: % Inh. MPO
[3] = target: T1, recombinant human LTA4 hydrolase (rhLTA4H) (Homo sapiens, UniProt P09960); assay: Recombinant human LTA4 hydrolase assay for LTA4 hydrolase inhibitor activity; type: biochemical; details: LTA4 substrate, LTB4 by immunoassay, average of one to three determinations;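 also: enzyme expressed in Sf-9 insect cells, compound preincubated 10 min with enzyme, 10 min reaction at room temperature, uninhibited reaction as positive control, enzyme-free blank as negative control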
T1 construct: made in house; host or cells: Spodoptera frugiperda (Sf-9) cells, baculovirus (pFastBac1)
T1 sequence (P09960 1-611): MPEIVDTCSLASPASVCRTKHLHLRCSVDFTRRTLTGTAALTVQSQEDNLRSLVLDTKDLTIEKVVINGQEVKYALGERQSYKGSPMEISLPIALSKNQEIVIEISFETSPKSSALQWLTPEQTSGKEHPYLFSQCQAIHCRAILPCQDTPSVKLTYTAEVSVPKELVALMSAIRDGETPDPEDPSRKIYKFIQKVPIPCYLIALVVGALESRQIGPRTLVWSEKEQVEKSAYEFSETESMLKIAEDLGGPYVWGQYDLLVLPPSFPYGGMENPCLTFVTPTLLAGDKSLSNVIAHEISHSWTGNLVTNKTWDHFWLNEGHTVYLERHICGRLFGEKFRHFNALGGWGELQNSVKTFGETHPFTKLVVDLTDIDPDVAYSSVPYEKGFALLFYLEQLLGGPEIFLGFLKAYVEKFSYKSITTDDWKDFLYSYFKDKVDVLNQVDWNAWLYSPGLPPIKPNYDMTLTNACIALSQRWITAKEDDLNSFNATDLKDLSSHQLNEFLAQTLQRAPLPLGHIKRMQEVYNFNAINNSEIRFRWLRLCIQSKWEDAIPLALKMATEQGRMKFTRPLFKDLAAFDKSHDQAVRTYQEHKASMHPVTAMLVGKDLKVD

[4] = test system: LTB4 production by calcium ionophore-stimulated murine blood; assay: LTB4 production by calcium ionophore-stimulated murine blood for LTA4H inhibitor activity; type: cell-based, CD-1 mice
colitis symptoms = details: eight weeks of treatment, cotton top tamarins; cited from earlier work
[5] = test system: ionophore-induced LTB4 production in rat peritoneum; details: oral administration; cited from earlier work
[6] = test system: ionophore-induced LTB4 production in mouse blood; details: oral administration; cited from earlier work
[7] = 30 mg/kg oral gavage 60 min before topical arachidonic acid to ear, ear biopsies after 3 h, vs animals without inhibitor
[8] = 30 mg/kg oral gavage, blood taken 3 h after arachidonic acid, ex vivo A23187 stimulation, vs animals without inhibitor
[9] = diluted CD-1 mouse whole blood, A23187 stimulation, LTB4 by immunoassay, read-out: IC50

Structure (SMILES)	IC50 [3] [nM]	IC50 [4, 9] [nM]	inhibition at 30 mg/kg ([1]; po, 3 h) [%]	inhibition in vivo at 30 mg/kg [2, 7] [%]	IC50 ([4]; Mus musculus) [nM]	inhibition at 30 mg/kg [1, 8] [%]	inhibition in vivo at 30 mg/kg ([2]; po, 3 h) [%]	colitis symptoms (colitis symptoms)	inhibition of ionophore-induced LTB4 production in rat peritoneum in vivo [5]	inhibition of ionophore-induced LTB4 production in mouse blood ex vivo [6]
OC1(c2ccccc2)CCN(CCCOc2ccc(Oc3nc4ccccc4o3)cc2)CC1 [Example 27, 1-{3-[4-(Benzooxazol-2-yloxy)-phenoxy]-propyl}-4-phenyl-piperidin-4-ol]	7	–	50	72	143	–	–	–	–	–
O=C1C[C@@H](O)CN1C1CCN(Cc2ccc(Oc3nc4ccccc4s3)cc2)CC1 [Example 446, 1-{1-[4-(Benzothiazol-2-yloxy)-benzyl]-piperidin-4-yl}-4-hydroxy-pyrrolidin-2-one]	8	131	–	43	–	64	–	–	–	–
O=C1C[C@H](O)CN1C1CCN(CCc2ccc(Oc3nc4ccccc4s3)cc2)CC1 [Example 336, (S)-1-(1-{2-[4-(Benzothiazol-2-yloxy)-phenyl]-ethyl}-piperidin-4-yl)-4-hydroxy-pyrrolidin-2-one]	24	153	–	0	–	67	–	–	–	–
OCC1CCN(Cc2ccc(Oc3nc4ccccc4s3)cc2)CC1 [Example 360, {1-[4-(Benzothiazol-2-yloxy)-benzyl]-piperidin-4-yl}-methanol]	33	246	–	88	–	87	–	–	–	–
O=C(O)C1CCN(CCOc2ccc(Oc3nc4ccccc4s3)cc2)CC1 [Example 18, 1-{2-[4-(Benzothiazol-2-yloxy)-phenoxy]-ethyl}-piperidine-4-carboxylic acid potassium salt]	6	–	78	–	162	–	83	–	–	–
CN(CCCOc1ccc(Cc2ccccc2)cc1)CCC(=O)O.Cl [SC57461]	–	–	–	–	–	–	–	significantly improved colitis symptoms	caused inhibition of ionophore-induced LTB4 production	caused inhibition of ionophore-induced LTB4 production
O=C1C[C@H](O)CN1C1CCN(Cc2ccc(Oc3nc4ccccc4s3)cc2)CC1 [Example 447, 1-{1-[4-(Benzothiazol-2-yloxy)-benzyl]-piperidin-4-yl}-4-hydroxy-pyrrolidin-2-one]	28	240	–	48	–	90	–	–	–	–
O=C(O)C1CCCN(CCc2ccc(Oc3nc4ccccc4s3)cc2)C1 (centres unmarked) [Example 155, 1-{2-[4-(Benzothiazol-2-yloxy)-phenyl]-ethyl}-piperidine-3-carboxylic acid]	9	127	–	93	–	96	–	–	–	–

The remaining molecules from weak to strong by IC50 [3], led by results:

IC50 [3] [nM]	IC50 [4, 9] [nM]	Structure (SMILES)	inhibition at 30 mg/kg ([1]; po, 3 h) [%]	inhibition in vivo at 30 mg/kg [2, 7] [%]	IC50 ([4]; Mus musculus) [nM]	inhibition at 30 mg/kg [1, 8] [%]	inhibition in vivo at 30 mg/kg ([2]; po, 3 h) [%]	colitis symptoms (colitis symptoms)	inhibition of ionophore-induced LTB4 production in rat peritoneum in vivo [5]	inhibition of ionophore-induced LTB4 production in mouse blood ex vivo [6]
5	49	OCC1CCCCN1CCOc1ccc(Oc2nc3ccccc3s2)cc1 (centres unmarked) [Example 263, (1-{2-[4-(Benzothiazol-2-yloxy)-phenoxy]-ethyl}-piperidin-2-yl)-methanol]	–	19	–	0	–	–	–	–
4	43	c1ccc2sc(Oc3ccc(OCCn4nnnc4C4CCNCC4)cc3)nc2c1 [Example 206, 2-{4-[2-(5-Piperidin-4-yl-tetrazol-1-yl)-ethoxy]-phenoxy}-benzothiazole]	–	76	–	67	–	–	–	–
2	15	O=C(O)CCN(CCc1ccc(Oc2nc3ccccc3s2)cc1)CC1CC1 [Example 180, 3-({2-[4-(Benzothiazol-2-yloxy)-phenyl]-ethyl}-cyclopropylmethyl-amino)-propionic acid]	–	87	–	87	–	–	–	–
1	52	O=C(O)C1CCN(CCc2ccc(Oc3nc4ccccc4s3)cc2)CC1 [Example 150, 1-{2-[4-(Benzothiazol-2-yloxy)-phenyl]-ethyl}-piperidine-4-carboxylic acid]	–	91	–	81	–	–	–	–
